Source: patent US20140031227A1, “HERBICIDAL COMPOSITIONS COMPRISING 4-AMINO-3-CHLORO-5-FLUORO-6-(4-CHLORO-2-FLUORO-3-METHOXYPHENYL) PYRIDINE-2-CARBOXYLIC ACID OR A DERIVATIVE THEREOF AND GLYPHOSATE OR GLUFOSINATE” (DOW AGROSCIENCES LLC, priority 2012, published 2014)

Tested on: SCPMA (Schoenoplectus maritimus (L.) Lye or Bolboschoenus maritimus (L.) Palla, sea clubrush)
Experiment: Example II in-water applied mixtures, transplanted paddy rice weeds, greenhouse: SCPMA
Assay type: in vivo
Conditions: Compound A Acid alone
Procedure: Weed seeds or nutlets of the desired test plant species were planted in puddled soil (mud) prepared by mixing a shredded, non-sterilized mineral soil (50.5 percent silt, 25.5 percent clay, and 24 percent sand, with a pH of about 7.6 and an organic matter content of about 2.9 percent) and water at a 1:1 volumetric ratio. The prepared mud was dispensed in 365 mL aliquots into 16-ounce (oz.) non-perforated plastic pots with a surface area of 86.59 square centimeters (cm^2) leaving a headspace of 3 centimeters (cm) in each pot. Mud was allowed to dry overnight prior to planting or transplanting. Rice seeds were planted in Sun Gro MetroMix® 306 planting mixture, which typically has a pH of 6.0 to 6.8 and an organic matter content of about 30 percent, in plastic plug trays. Seedlings at the second or third leaf stage of growth were transplanted into 840 mL of mud contained in 32-oz. non-perforated plastic pots with a surface area of 86.59 cm^2 4 days prior to herbicide application. The paddy was created by filling the headspace of the pots with 2.5 to 3 cm of water. […] The plants were grown for 4-22 days in a greenhouse with an approximate 14 hr photoperiod which was maintained at about 29′C during the day and 26° C. during the night. Nutrients were added as Osmocote® (19:6:12, N:P:K+minor nutrients) at 2 g per 16-oz. pot and 4 g per 32-oz. pot. Water was added on a regular basis to maintain the paddy flood, and supplemental lighting was provided with overhead metal halide 1000-Watt lamps as necessary. The plants were employed for testing when they reached the first through fourth true leaf stage.
Treatments consisted of the acid or esters of 4-amino-3-chloro-5-fluoro-6-(4-chloro-2-fluoro-3-methoxy-phenyl)pyridine-2-carboxylic acid (compound A) each formulated as an SC (suspension concentrate) and various herbicidal components alone and in combination. Forms of compound A were applied on an acid equivalent basis.
For formulated compounds, a measured amount was placed in an individual 100 or 200 mL glass vial and was dissolved in a volume of 1.25% (v/v) Agri-Dex® crop oil concentrate to obtain application solutions.
Applications were made by injecting with a pipetter appropriate amounts of the application solutions, individually and sequentially, into the aqueous layer of the paddy. Control plants were treated in the same manner with the solvent blank. Applications were made so that all treated plant material received the same concentrations of acetone and crop oil concentrate.
The treated plants and control plants were placed in a greenhouse as described above and water was added as needed to maintain a paddy flood. After approximately 3 weeks the condition of the test plants as compared with that of the untreated plants was determined visually and scored on a scale of 0 to 100 percent where 0 corresponds to no injury or growth inhibition and 100 corresponds to complete kill.
Colby's equation was used to determine the herbicidal effects expected from the mixtures (Colby, S. R. 1967. Calculation of the synergistic and antagonistic response of herbicide combinations. Weeds 15:20-22.).

Measured: Visual Weed Control (%) - 21 DAA SCPMA Obs

COc1c(Cl)ccc(-c2nc(C(=O)O)c(Cl)c(N)c2F)c1F [Compound A Acid, 4-amino-3-chloro-6-(4-chloro-2-fluoro-3-methoxyphenyl)-5-fluoropyridine-2-carboxylic acid]
0%: 8.75 gae/ha | 17.5 gae/ha | 35 gae/ha
